Experimental data from US12319672B2, “Alpha-D-galactopyranoside derivatives” (Idorsia Pharmaceuticals Ltd, priority 2019, dated 2025).

Assays:
human Gal-1 (hGal-1) = assay: Competitive binding assay: binding of biotinylated hGal-1 to microplate-adsorbed asialofetuin (ASF); settings: Activities on hGal-1; mean values of several measurements
How it was run: (§1)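 Biotin-hGal-3/hGal-1 300-1000 ng/mL + cpd (DMSO dilutions) on ASF-coated plate, 3 h 4° C; wash; SA-HRP 80 ng/mL 1 h 4° C; wash; ABTS. IC50 = mean of several runs. hGal-1 preferably Cys→Ser (all six) mutant.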

human Gal-3 (hGal-3) = human Gal-3 (hGal-3) (Homo sapiens (Human), UniProt P17931); assay: Competitive binding assay: binding of biotinylated hGal-3 to microplate-adsorbed asialofetuin (ASF); settings: Activity on hGal-3; mean values of several measurements
human Gal-3 (hGal-3), sequence (P17931 whole entry): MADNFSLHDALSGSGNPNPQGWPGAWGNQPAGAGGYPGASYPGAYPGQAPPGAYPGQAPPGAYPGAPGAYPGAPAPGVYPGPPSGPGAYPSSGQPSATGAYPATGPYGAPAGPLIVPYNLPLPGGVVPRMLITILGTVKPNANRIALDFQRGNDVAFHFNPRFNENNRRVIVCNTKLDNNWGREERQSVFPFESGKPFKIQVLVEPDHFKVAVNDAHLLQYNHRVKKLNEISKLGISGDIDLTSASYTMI
How it was run: as §1

human Gal-1 (hGal-1), sequence (P09382 2-135 limits assumed): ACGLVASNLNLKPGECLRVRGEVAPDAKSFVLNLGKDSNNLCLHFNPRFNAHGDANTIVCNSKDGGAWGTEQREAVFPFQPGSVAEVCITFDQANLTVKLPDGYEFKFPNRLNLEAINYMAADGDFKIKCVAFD

Row | SMILES | IC50 (human Gal-1 (hGal-1)) [nM] | IC50 (human Gal-3 (hGal-3)) [nM]
1 | CO[C@@H]1[C@@H](n2cc(-c3cc(F)c(F)c(F)c3)nn2)[C@@H](O)[C@@H](CO)O[C@@H]1CC1CN(CC2CCN(C(=O)OC(C)(C)C)CC2)C(=O)O1 (mixture of isomers) [Example 5.16, tert-butyl 4-(((RS)-5-(((2R,3R,4S,5R,6R)-5-hydroxy-6-(hydroxymethyl)-3-methoxy-4-(4-(3,4,5-trifluorophenyl)-1H-1,2,3-triazol-1-yl)tetrahydro-2H-pyran-2-yl)methyl)-2-oxooxazolidin-3-yl)methyl)piperidine-1-carboxylate] | 42100 | 630
2 | CO[C@@H]1[C@@H](n2cc(-c3cc(F)c(F)c(F)c3)nn2)[C@@H](O)[C@@H](CO)O[C@@H]1CC1CN(C2CCN(S(=O)(=O)CC(C)C)CC2)C(=O)O1 (mixture of isomers) [Example 5.18, (RS)-5-(((2R,3R,4S,5R,6R)-5-hydroxy-6-(hydroxymethyl)-3-methoxy-4-(4-(3,4,5-trifluorophenyl)-1H-1,2,3-triazol-1-yl)tetrahydro-2H-pyran-2-yl)methyl)-3-(1-(isobutylsulfonyl)piperidin-4-yl)oxazolidin-2-one] | 640 | 35
3 | CO[C@@H]1[C@@H](n2cc(-c3cc(F)c(F)c(F)c3)nn2)[C@@H](O)[C@@H](CO)O[C@@H]1CC1CN(C2CCN(C(=O)CC(C)(C)C)CC2)C(=O)O1 (mixture of isomers) [Example 5.19, (RS)-3-(1-(3,3-dimethylbutanoyl)piperidin-4-yl)-5-(((2R,3R,4S,5R,6R)-5-hydroxy-6-(hydroxymethyl)-3-methoxy-4-(4-(3,4,5-trifluorophenyl)-1H-1,2,3-triazol-1-yl)tetrahydro-2H-pyran-2-yl)methyl)oxazolidin-2-one] | 1370 | 100
4 | CO[C@@H]1[C@@H](n2cc(-c3cc(F)c(F)c(F)c3)nn2)[C@@H](O)[C@@H](CO)O[C@@H]1CC1CN(C2CCN(S(=O)(=O)C(F)(F)F)CC2)C(=O)O1 (mixture of isomers) [Example 5.20, (RS)-5-(((2R,3R,4S,5R,6R)-5-hydroxy-6-(hydroxymethyl)-3-methoxy-4-(4-(3,4,5-trifluorophenyl)-1H-1,2,3-triazol-1-yl)tetrahydro-2H-pyran-2-yl)methyl)-3-(1-((trifluoromethyl)sulfonyl)piperidin-4-yl)oxazolidin-2-one] | 2310 | 140

Now from value to compound:

Row | IC50 (human Gal-1 (hGal-1)) [nM] | IC50 (human Gal-3 (hGal-3)) [nM] | SMILES
5 | 9070 | 190 | CO[C@@H]1[C@@H](n2cc(-c3cc(F)c(F)c(F)c3)nn2)[C@@H](O)[C@@H](CO)O[C@@H]1CC1CN(C2CCOCC2)C(=O)O1 (mixture of isomers) [Example 5.17, (RS)-5-(((2R,3R,4S,5R,6R)-5-hydroxy-6-(hydroxymethyl)-3-methoxy-4-(4-(3,4,5-trifluorophenyl)-1H-1,2,3-triazol-1-yl)tetrahydro-2H-pyran-2-yl)methyl)-3-(tetrahydro-2H-pyran-4-yl)oxazolidin-2-one]
6 | 8680 | 350 | CO[C@@H]1[C@@H](n2cc(-c3cc(F)c(F)c(F)c3)nn2)[C@@H](O)[C@@H](CO)O[C@@H]1C[C@@H]1CN(C2CCN([S@+]([O-])C(C)(C)C)CC2)C(=O)O1 (mixture of isomers) [Example 5.21, (RS)-3-((RS)-1-(tert-butylsulfinyl)piperidin-4-yl)-5-(((2R,3R,4S,5R,6R)-5-hydroxy-6-(hydroxymethyl)-3-methoxy-4-(4-(3,4,5-trifluorophenyl)-1H-1,2,3-triazol-1-yl)tetrahydro-2H-pyran-2-yl)methyl)oxazolidin-2-one]
7 | 760 | 67 | CO[C@@H]1[C@@H](n2cc(-c3cc(F)c(F)c(F)c3)nn2)[C@@H](O)[C@@H](CO)O[C@@H]1CC1CN(C2CCN(S(=O)(=O)C(C)(C)C)CC2)C(=O)O1 (mixture of isomers) [Example 5.22, (RS)-3-(1-(tert-butylsulfonyl)piperidin-4-yl)-5-(((2R,3R,4S,5R,6R)-5-hydroxy-6-(hydroxymethyl)-3-methoxy-4-(4-(3,4,5-trifluorophenyl)-1H-1,2,3-triazol-1-yl)tetrahydro-2H-pyran-2-yl)methyl)oxazolidin-2-one]
